Values quoted from earlier work in patent US20090004173A1, “Diagnosis and Treatment of Drug Resistant Leukemia” (priority 2004, published 2009).
Where two headings read alike, the source gives them in different places.

B1: L-asparaginase (protein, UniProt P00805 23-348, looked up)
L-asparaginase 2: LPNITILATGGTIAGGGDSATKSNYTVGKVGVENLVNAVPQLKDIANVKGEQVVNIGSQDMNDNVWLTLAKKINTDCDKTDGFVITHGTDTMEETAYFLDLTVKCDKPVVMVGAMRPSTSMSADGPFNLYNAVVTAADKASANRGVLVVMNDTVLDGRDVTKTNTTDVATFKSVNYGPLGYIHNGKIDYQRTPARKHTSDTPFDVSKLNELPKVGIVYNYANASDLPAKALVDAGYDGIVSAGVGNGNLYKSVFDTLATAAKTGTAVVRSSRVPTGATTQDAEVDDAKYGFVASGTLNPQKARVLLQLALTQTKDPQQIQQIFNQY

Key:
non-leukemic cell lines = conditions: Niitsu et al. (2000)
leukemia cells = conditions: for LC50 values for classification of ALL: Resistant / LC50 values for classification of ALL: Sensitive: LC50 by MTT, cut-off previously associated with treatment outcome
[1] = classification cut-off: cell is resistant if LC-50 is equal to or greater than the value

Row | Molecule | sensitization to the cytotoxicity of daunorubicin and doxorubicin (non-leukemic cell lines) | LC50 values for classification of ALL: Resistant (leukemia cells) | LC50 values for classification of ALL: Sensitive (leukemia cells) | LC-50 values for classifying leukemia cells as drug-resistant (leukemia cells; [1]) | LC-50 values for classifying leukemia cells as drug-resistant (leukemia cells)
1 | CCCC(=O)OCOC(=O)C(C)(C)C [AN-9] | sensitize non-leukemic cell lines to the cytotoxicity of daunorubicin and doxorubicin | – | – | – | –
2 | COc1cccc2c1C(=O)c1c(O)c3c(c(O)c1C2=O)C[C@@](O)(C(C)=O)C[C@@H]3O[C@H]1C[C@H](N)[C@H](O)[C@H](C)O1 [Daunorubicin, daunorubicin] | – | ≧0.114 μg/ml | ≦0.075 μg/ml | ≧0.114 μg/ml | –
3 | C[C@]12C=CC(=O)C=C1CC[C@@H]1[C@@H]2[C@@H](O)C[C@@]2(C)[C@H]1CC[C@]2(O)C(=O)CO [Prednisolone, prednisolone] | – | ≧150 μg/ml | ≦0.100 μg/ml | ≧150 μg/ml | –
4 | CC[C@]1(O)C[C@H]2CN(CCc3c([nH]c4ccccc34)[C@@](C(=O)OC)(c3cc4c(cc3OC)N(C=O)[C@H]3[C@@](O)(C(=O)OC)[C@H](OC(C)=O)[C@]5(CC)C=CCN6CC[C@]43[C@@H]65)C2)C1 [Vincristine, vincristine] | – | ≧1.758 μg/ml | ≦0.391 μg/ml | ≧1.758 μg/ml | –
5 | B1 | – | ≧0.912 IU/ml | ≦0.033 IU/ml | – | ≧0.912 IU/ml
